According to PubChem BioAssay (NCI):
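96-well plates; 48 h exposure; 5 concentrations. Endpoints by linear interpolation between flanking doses. Not reached: highest tested concentration assigned. Abbreviation: GI50, concentration required for 50% inhibition of growth. TGI denotes the concentration required for complete inhibition of growth.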

Tests used:
Test in all cases: DTP human tumour cell line panel, 48 h
UACC-62 melanoma = test system: UACC-62 melanoma
A498 renal = test system: A498 renal
UACC-257 melanoma = test system: UACC-257 melanoma
SF-268 CNS = test system: SF-268 CNS
HL-60(TB) leukemia = test system: HL-60(TB) leukemia
NCI-H460 lung = test system: NCI-H460 lung
SR leukemia = test system: SR leukemia
NCI-H522 lung = test system: NCI-H522 lung
NCI-H23 lung = test system: NCI-H23 lung
BT-549 breast = test system: BT-549 breast

SMILES	TGI (UACC-62 melanoma)	TGI (A498 renal)	TGI (UACC-257 melanoma)	TGI (SF-268 CNS)	TGI (HL-60(TB) leukemia)	TGI (NCI-H460 lung)	TGI (SR leukemia)	TGI (NCI-H522 lung)	TGI (NCI-H23 lung)	TGI (BT-549 breast)	GI50 (UACC-62 melanoma)	GI50 (A498 renal)	GI50 (NCI-H23 lung)	GI50 (UACC-257 melanoma)	GI50 (SF-268 CNS)	GI50 (HL-60(TB) leukemia)	GI50 (NCI-H460 lung)	GI50 (SR leukemia)	GI50 (NCI-H522 lung)
O=C1NC(=S)NC(=O)C1=Cc1cc2c(cc1[N+](=O)[O-])OCO2	> 100 µM	> 100 µM	> 100 µM	> 100 µM	> 100 µM	> 100 µM	> 100 µM	> 100 µM	–	–	–	–	–	–	–	–	–	–	–
Cc1cccc(-c2nc3c(C(=O)NCCN(C)C)cccc3[nH]2)c1	3.2 µM	3.34 µM	3.08 µM	5.28 µM	–	5.99 µM	–	–	2.26 µM	–	–	–	–	–	–	–	–	–	–
CC(=O)CCCCCCCCCCCC[C@@H]1CC[C@H](C)[C@H](O)N1	> 100 µM	–	> 100 µM	> 100 µM	> 100 µM	> 100 µM	> 100 µM	> 100 µM	> 100 µM	–	–	–	–	–	–	–	–	–	–
CCCCCCCCCCC/C(=N/O)c1ccc(O)c2ncccc12	–	–	24.2 µM	> 100 µM	–	17 µM	–	6.57 µM	57.4 µM	–	–	–	–	–	–	–	–	–	–
O=C1C(Cl)C(c2cccc(O)c2)N1n1cnc2ccccc2c1=O (stereo unspecified)	> 100 µM	–	> 100 µM	> 100 µM	> 100 µM	> 100 µM	> 100 µM	> 100 µM	> 100 µM	–	–	–	–	–	–	–	–	–	–
N#CC(=S)Nc1cccc(Cl)c1	> 100 µM	> 100 µM	> 100 µM	> 100 µM	70.4 µM	> 100 µM	–	–	> 100 µM	> 100 µM	–	–	–	–	–	–	–	–	–
Cc1c(/C=N/NS(=O)(=O)c2ccccc2)no[n+]1[O-]	> 100 µM	> 100 µM	–	> 100 µM	> 100 µM	–	> 100 µM	> 100 µM	> 100 µM	–	–	–	–	–	–	–	–	–	–
CCCCn1c2cc(OCc3cn(-c4ccc(Cl)cc4)nn3)ccc2c2ccnc(C)c21	11.8 µM	14.1 µM	11.1 µM	> 33.3 µM	12.6 µM	18.6 µM	22.4 µM	13.3 µM	26.6 µM	–	4.96 µM	5.08 µM	7.23 µM	5.83 µM	9.15 µM	5.09 µM	7.2 µM	5.2 µM	4.72 µM
[N-]=[N+]=NC(c1cn(C2CC(O)C(CO)O2)c(=O)[nH]c1=O)C(Br)I (stereo unspecified)	> 100 µM	–	–	–	> 100 µM	> 100 µM	> 100 µM	> 100 µM	> 100 µM	–	–	–	–	–	–	–	–	–	–
COc1ccc(C=C2C(=O)OC(C)(C)OC2=O)cc1OC	> 100 µM	> 100 µM	> 100 µM	> 100 µM	–	> 100 µM	–	> 100 µM	> 100 µM	–	–	–	–	–	–	–	–	–	–
Cc1ccccc1-c1c(N)nc(NC#N)nc1C(=O)Nc1ccccc1	> 100 µM	> 100 µM	> 100 µM	> 100 µM	–	> 100 µM	> 100 µM	–	> 100 µM	–	–	–	–	–	–	–	–	–	–
CCN1C2=NC(=O)N(C)C(=O)C2(Cl)C(C(SC)S(=O)(=O)c2ccc(C)cc2)c2ccccc21 (stereo unspecified)	> 100 µM	> 100 µM	> 100 µM	> 100 µM	19.7 µM	> 100 µM	–	25.9 µM	50.4 µM	–	–	–	–	–	–	–	–	–	–
[Cl][Bi]([O]c1ccccn1)[O]c1ccccn1	> 100 µM	–	> 100 µM	> 100 µM	–	–	> 100 µM	–	> 100 µM	–	> 100 µM	–	> 100 µM	> 100 µM	> 100 µM	–	–	> 100 µM	–
